Assay: Calibration of the Working Reagent at 660 nm (aqueous hemoglobin solutions)
Assay type: biochemical
Settings: 2 minutes, 37° C.
Experimental: To prepare the solution-based assay composition, 14 mL of stock reagent B was poured into 1 mL of stock reagent A and mixed gently for 1-2 minutes by stirring. The combined A/B reagent was poured into 1 L of stock reagent C and mixed gently by stirring for approximately 30 minutes and allowed to stand at room temperature overnight prior to use. This prepared a working solution-based assay composition to be used as a working reagent.
A solution-based assay composition prepared according to Example 1 was used to calibrate its detectable color change having an absorbance at about 660 nm. Aqueous solutions of hemoglobin were prepared in the concentrations of 0.055, 0.060, 0.065, 0.068, 0.070, and 0.075 mg/dL. Twenty-one replicates of each hemoglobin solution were run using the following procedure.
The solution-based assay composition (or working reagent) and the hemoglobin solutions were equilibrated at room temperature before use. A 15 microliter sample of a hemoglobin solution and 250 microliters of the working reagent were transferred to the sample wheel of a Cobas-Bio autoanalyzer which was equilibrated at 37° C. The sample and the working reagent were mixed by rotation of the sample wheel. After the sample and working reagent were allowed to react for 2 minutes, the absorbance of the resulting solution was measured at 660 nm. The calibration curve shown in FIG. 1 was generated by plotting absorbance versus concentration data shown in Table 1 below and using standard regression analysis. This calibration curve can then be used to quantitatively assay the amount of hemoglobin in a bodily fluid.

## HEMOGLOBIN
Hemoglobin 0.055 mg/dL, 15 microliter sample + 250 microliters working reagent
  ABSORBANCE, 660 nm: 0.1139
Hemoglobin 0.06 mg/dL
  ABSORBANCE, 660 nm: 0.1319
Hemoglobin 0.065 mg/dL
  ABSORBANCE, 660 nm: 0.1474
Hemoglobin 0.0675 mg/dL
  ABSORBANCE, 660 nm: 0.1557
Hemoglobin 0.070 mg/dL
  ABSORBANCE, 660 nm: 0.1719
Hemoglobin 0.075 mg/dL
  ABSORBANCE, 660 nm: 0.1877

— US5885789A, “Solution-based assay for peroxidatively-active substances in bodily fluids” (STC Technologies Incorporated, priority 1997, dated 1999)
